Our source for the IC50 values is patent US10654884B2 (Vitae Pharmaceuticals, Inc., priority 2014, dated 2020).

In general, IC50 refers to the midpoint of a concentration-inhibition curve.

Where only a bound is given, the exact number is not on record here.

Assay [1] deals with T1, CD73 on U138 neuroglioma cells (Homo sapiens, UniProt P21589).
T1 construct: U138 neuroglioma cells, which express CD73 on their surface; endogenous in cells; host or cells: U138 neuroglioma cells (ATCC)
T1 sequence (P21589 27-549): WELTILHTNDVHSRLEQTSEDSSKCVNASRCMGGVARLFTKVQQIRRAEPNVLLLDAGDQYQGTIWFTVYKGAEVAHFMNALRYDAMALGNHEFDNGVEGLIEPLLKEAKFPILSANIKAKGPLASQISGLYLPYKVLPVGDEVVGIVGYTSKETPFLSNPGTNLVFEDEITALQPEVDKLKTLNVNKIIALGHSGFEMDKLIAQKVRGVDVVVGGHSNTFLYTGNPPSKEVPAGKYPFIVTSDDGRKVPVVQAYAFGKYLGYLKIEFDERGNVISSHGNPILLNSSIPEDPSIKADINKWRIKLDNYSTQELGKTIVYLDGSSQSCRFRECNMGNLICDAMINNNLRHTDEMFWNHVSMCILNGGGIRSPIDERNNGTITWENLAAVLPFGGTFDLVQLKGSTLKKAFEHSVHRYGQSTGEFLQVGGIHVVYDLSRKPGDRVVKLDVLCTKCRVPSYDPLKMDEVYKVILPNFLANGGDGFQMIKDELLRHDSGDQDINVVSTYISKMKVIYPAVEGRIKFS
The assay can be described thus: Inhibition of Ecto-5′-Nucleotidase Activity in U138 Neuroglioma Cells (Assay 2). The format is cell-based. The settings on record: 50 μM CMP, 2 hr at 37° C., malachite green readout, read-out: Assay 2: IC50, inhibition of ecto-5′-nucleotidase activity in U138 neuroglioma cells. As to the method: Inhibition of Ecto-5′-Nucleotidase Activity in U138 Neuroglioma Cells (Assay 2)
U138 cells were obtained from the American Type Culture Collection (ATCC) (Manassas, Va.), and cultured in complete growth media (DMEM, 10% FBS, 1 mM L-glutamine, 100 U penicillin-streptomycin) at 37° C., 5% CO2. The day before the experiment, cells were seeded at 2,500 cells/well in 100 μL of complete media into 96-well plates. Cells were washed twice with 200 μL of assay buffer (20 mM HEPES, pH 7.4, 137 mM NaCl, 5.4 mM KCl, 1.3 mM CaCl2, 4.2 mM NaHCO3, 1 mg/mL glucose) to remove residual inorganic phosphate. After washing, assays contained serial dilutions of test compounds and 50 μM of cytidine-5′-monophosphate (CMP) in a total volume of 200 μL of assay buffer, with a final DMSO concentration ≤0.1%. After 2 hr at 37° C., 5% CO2, 100 μL of supernatant was removed from the cells and the concentration of inorganic phosphate was determined using malachite green reagent. IC50 values for test compounds were determined from nonlinear regression fits of the data using XLfit (IDBS).

In assay [2] the target is T2, human CD73 (Homo sapiens, UniProt P21589).
T2 construct: purchased R&D Systems 5795-EN-010
T2 sequence (P21589 27-549): T1 sequence (P21589 27-549)
The assay is described as follows: Inhibition of 5′-Nucleotidase Activity of CD73 (Assay 1). The class given is biochemical. The note with it: human CD73 4 ng/ml, 50 μM CMP, 20 min at RT, malachite green readout; read-out: Assay 1: IC50, inhibition of 5′-nucleotidase activity of CD73. The essentials:
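Human CD73 (4 ng/ml final) was incubated with 50 μM CMP in 25 mM Tris-HCl pH 7.4, 0.005% Brij-35 for 20 min at RT. Reactions were stopped with malachite green reagent and absorbance was read at 620 nm. IC50 came from a 4-parameter logistic fit.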

In the case of `CCOC(=O)[C@H](OC[C@H]1O[C@@H](n2cnc3c(N)nc(-c4ncco4)nc32)[C@H](O)[C@@H]1O)P(=O)(O)O` (single isomer, unassigned) [Example 49], the results for the IC50 in assay [1] and in assay [2] were 100 to 1000 nM and < 100 nM, respectively.

Regarding `CCOC(=O)[C@@H](OC[C@H]1O[C@@H](n2cnc3c(N)nc(-c4ncco4)nc32)[C@H](O)[C@@H]1O)P(=O)(O)O` (single isomer, unassigned) [Example 49a], the figures for the IC50 in assay [1] and in assay [2] were > 1000 nM and 100 to 1000 nM, respectively.

With `CCOC(=O)[C@H](OC[C@H]1O[C@@H](n2cnc3c(N)nc(C4CC4)nc32)[C@H](O)[C@@H]1O)P(=O)(O)O` (single isomer, unassigned) [Example 50], the IC50 was > 1000 nM in assay [1] and 100 to 1000 nM in assay [2].

On to `CCOC(=O)[C@H](OC[C@H]1O[C@@H](n2cnc3c(N)nc([C@@H]4NCCO4)nc32)[C@H](O)[C@@H]1O)P(=O)(O)O` (single isomer, unassigned) [Example 51], for which the IC50 is > 1000 nM in assay [1] and 100 to 1000 nM in assay [2].

With `CCOC(=O)[C@H](OC[C@H]1O[C@@H](n2cnc3c(N)nc([C@H]4NCCO4)nc32)[C@H](O)[C@@H]1O)P(=O)(O)O` (single isomer, unassigned) [Example 51a], the IC50 is > 1000 nM in assay [1] and 100 to 1000 nM in assay [2].

As for `CCOC(=O)[C@@H](OC[C@H]1O[C@@H](n2cnc3c(N)nc(F)nc32)[C@H](O)[C@@H]1O)P(=O)(O)O` (single isomer, unassigned) [Example 52], the IC50 was 100 to 1000 nM in assay [1] and < 100 nM in assay [2].

For the compound `CCOC(=O)[C@H](OC[C@H]1O[C@@H](n2cnc3c(N)nc(F)nc32)[C@H](O)[C@@H]1O)P(=O)(O)O` (single isomer, unassigned) [Example 52a], the figures for the IC50 in assay [1] and in assay [2] were > 1000 nM and 100 to 1000 nM, respectively.

Regarding `CC(C)(C)OC(=O)[C@H](OC[C@H]1O[C@@H](n2cnc3c(N)nc(C#N)nc32)[C@H](O)[C@@H]1O)P(=O)(O)O` (single isomer, unassigned) [Example 54], the IC50 in assay [1] and in assay [2] was < 100 nM each time.

With `CC(C)(C)OC(=O)[C@@H](OC[C@H]1O[C@@H](n2cnc3c(N)nc(C#N)nc32)[C@H](O)[C@@H]1O)P(=O)(O)O` (single isomer, unassigned) [Example 54b], the IC50 is 100 to 1000 nM in assay [1] and < 100 nM in assay [2].

Regarding `Nc1nc(Cl)nc2c1ncn2[C@@H]1O[C@H](COC(C(=O)O)P(=O)(O)O)[C@@H](O)[C@H]1O` (single isomer, unassigned) [Example 61], the IC50 in assay [1] and in assay [2] was < 100 nM each time.

For the compound `Cc1nc(N)c2ncn([C@@H]3O[C@H](COC(C(=O)O)P(=O)(O)O)[C@@H](O)[C@H]3O)c2n1` (single isomer, unassigned) [Example 69a], the IC50 in assay [1] is > 1000 nM; in assay [2], 100 to 1000 nM.

For the compound `CCOC(=O)[C@H](OC[C@H]1C[C@@H](n2cnc3cccc(Cl)c3c2=O)[C@H](O)[C@@H]1O)P(=O)(O)O` (single isomer, unassigned) [Example 70], the IC50 in assay [1] is > 1000 nM; in assay [2], 100 to 1000 nM.

Turning to `CCOC(=O)[C@H](OC[C@H]1C[C@@H](n2cnc3cccc(Br)c3c2=O)[C@H](O)[C@@H]1O)P(=O)(O)O` (single isomer, unassigned) [Example 72], the IC50 was > 1000 nM in assay [1] and 100 to 1000 nM in assay [2].

For `CCOC(=O)C(OC[C@H]1C[C@@H](n2cnc3c(N)nc(Cl)nc32)[C@H](O)[C@@H]1O)P(=O)(O)O` (single isomer, unassigned) [Example 76], the IC50 in assay [1] and in assay [2] was < 100 nM each time.

In the case of `CCOC(=O)C(OC[C@H]1C[C@@H](n2cnc3c(N)nc(Cl)nc32)[C@H](O)[C@@H]1O)P(=O)(O)O` (single isomer, unassigned) [Example 76a], the IC50 in assay [1] and in assay [2] was 100 to 1000 nM in each case.
